{"source": "ChEMBL document CHEMBL1121897", "about": "“Synthesis and antihypertensive activity of new 6-heteroaryl-3-hydrazinopyridazine derivatives” (J Med Chem, 1981)", "key": {"[1]": {"system": "Rattus norvegicus", "test": "Hypotensive activity was measured as ED20 which is the dose lowered the normal arterial pressure in anesthetized rats by 20% after iv administration", "assay_type": "functional, Artery"}, "[2]": {"system": "Rattus norvegicus", "test": "Relative potency of compound was measured in anesthetized rats after ip administration", "assay_type": "functional"}, "[3]": {"system": "Rattus norvegicus", "test": "Hypotensive activity was measured as ED20 which is the dose lowered the normal arterial pressure in anesthetized rats by 20% after ip administration.", "assay_type": "functional, Artery"}, "[4]": {"system": "Rattus norvegicus", "test": "Hypotensive activity was measured as ED20 which is the dose lowered the normal arterial pressure in anesthetized rats by 20% after iv administration.", "assay_type": "functional, Artery"}, "[5]": {"test": "Acute toxicity was measured as LD50 in mice after ip administration.", "assay_type": "organism-based", "settings": "mouse, in vivo"}, "[6]": {"system": "Rattus norvegicus", "test": "Relative potency of compound was measured in conscious SH rats after po administration.", "assay_type": "functional"}, "[7]": {"system": "Rattus norvegicus", "test": "Relative potency of compound was measured in anesthetized rats after iv administration.", "assay_type": "functional"}, "[8]": {"system": "Rattus norvegicus", "test": "Antihypertensive activity was measured as ED20 which is the dose lowered the normal arterial pressure in conscious SH rats by 20% after po administration.", "assay_type": "functional, Artery"}, "[9]": {"test": "Acute toxicity was measured as LD50 in mice after ip administration", "assay_type": "organism-based", "settings": "mouse, in vivo"}, "[10]": {"system": "Rattus norvegicus", "test": "Relative potency of compound was measured in conscious SH rats after po administration", "assay_type": "functional"}, "[11]": {"system": "Rattus norvegicus", "test": "Antihypertensive activity was measured as ED20 which is the dose lowered the normal arterial pressure in conscious SH rats by 20% after po administration", "assay_type": "functional, Artery"}, "[12]": {"system": "Rattus norvegicus", "test": "Relative potency of compound was measured in anesthetized rats after ip administration.", "assay_type": "functional"}, "[13]": {"system": "Rattus norvegicus", "test": "Hypotensive activity was measured as ED20 which is the dose lowered the normal arterial pressure in anesthetized rat by 20% after iv administration", "assay_type": "functional, Artery"}, "[14]": {"system": "Rattus norvegicus", "test": "Relative potency of compound was measured in anesthetized rats after iv administration", "assay_type": "functional"}}, "data": [{"smiles": "NNc1ccc(-c2ccc(Cl)s2)nn1", "values": [{"measurement": "ED20", "setting": "[1]", "value": 9.51, "unit": "µM/kg"}, {"measurement": "Relative potency", "setting": "[2]", "value": 0.19}]}, {"smiles": "Cc1ccc(C)n1-c1ccc(NN)nn1.Cl", "values": [{"measurement": "ED20", "setting": "[1]", "value": 8.02, "unit": "µM/kg"}, {"measurement": "Relative potency", "setting": "[2]", "value": 0.06}]}, {"smiles": "N/N=c1\\[nH][nH]/c(=N\\N)c2ccccc12", "note": "[DIHYDRALAZINE]", "values": [{"measurement": "ED20", "setting": "[3]", "value": 1.78, "unit": "µM/kg"}, {"measurement": "ED20", "setting": "[4]", "value": 0.449, "unit": "µM/kg"}, {"measurement": "LD50", "setting": "[5]", "value": 1080, "unit": "µmol/kg"}, {"measurement": "Relative potency", "setting": "[6]", "value": 1}, {"measurement": "Relative potency", "setting": "[7]", "value": 1}, {"measurement": "ED20", "setting": "[8]", "value": 36.1, "unit": "µM/kg"}]}, {"smiles": "CCc1nccn1-c1ccc(NN)nn1", "values": [{"measurement": "LD50", "setting": "[9]", "value": 765, "unit": "µmol/kg"}, {"measurement": "Relative potency", "setting": "[10]", "value": 2.52}, {"measurement": "ED20", "setting": "[1]", "value": 0.313, "unit": "µM/kg"}, {"measurement": "Relative potency", "setting": "[2]", "value": 1.43}, {"measurement": "ED20", "setting": "[11]", "value": 14.3, "unit": "µM/kg"}]}, {"smiles": "CCc1nccn1-c1ccc(NN=C(C)C)nn1", "values": [{"measurement": "ED20", "setting": "[4]", "value": 0.247, "unit": "µM/kg"}, {"measurement": "LD50", "setting": "[5]", "value": 508, "unit": "µmol/kg"}, {"measurement": "Relative potency", "setting": "[6]", "value": 3.54}, {"measurement": "Relative potency", "setting": "[7]", "value": 1.82}, {"measurement": "ED20", "setting": "[8]", "value": 10.2, "unit": "µM/kg"}]}, {"smiles": "NNc1ccc(-n2cncn2)nn1", "values": [{"measurement": "LD50", "setting": "[9]", "value": 262, "unit": "µmol/kg"}, {"measurement": "Relative potency", "setting": "[2]", "value": 0.17}]}, {"smiles": "CC(C)=C/C(C)=N\\Nc1ccc(-n2cccc2)nn1.Cl", "values": [{"measurement": "ED20", "setting": "[4]", "value": 1.77, "unit": "µM/kg"}, {"measurement": "Relative potency", "setting": "[7]", "value": 0.25}]}, {"smiles": "NNc1ccc(-n2ccc3ccccc32)nn1", "values": [{"measurement": "LD50", "setting": "[9]", "value": 206, "unit": "µmol/kg"}, {"measurement": "ED20", "setting": "[1]", "value": 2.06, "unit": "µM/kg"}, {"measurement": "Relative potency", "setting": "[2]", "value": 0.22}]}, {"smiles": "NNc1ccc(-n2ccnc2)nn1", "values": [{"measurement": "LD50", "setting": "[9]", "value": 853, "unit": "µmol/kg"}, {"measurement": "ED20", "setting": "[1]", "value": 2.64, "unit": "µM/kg"}, {"measurement": "Relative potency", "setting": "[2]", "value": 0.17}]}, {"smiles": "Cc1nccn1-c1ccc(NN)nn1", "values": [{"measurement": "LD50", "setting": "[9]", "value": 1020, "unit": "µmol/kg"}, {"measurement": "Relative potency", "setting": "[10]", "value": 4.88}, {"measurement": "ED20", "setting": "[1]", "value": 0.163, "unit": "µM/kg"}, {"measurement": "Relative potency", "setting": "[2]", "value": 2.75}, {"measurement": "ED20", "setting": "[11]", "value": 7.42, "unit": "µM/kg"}]}, {"smiles": "NNc1ccc(-n2cccc2)[n+]([O-])n1", "values": [{"measurement": "ED20", "setting": "[3]", "value": ">5.24", "unit": "µM/kg"}, {"measurement": "Relative potency", "setting": "[12]", "value": "<0.34"}]}, {"smiles": "CC(C)=NNc1ccc(-n2cccc2)nn1.Cl", "values": [{"measurement": "ED20", "setting": "[4]", "value": 4.65, "unit": "µM/kg"}, {"measurement": "Relative potency", "setting": "[7]", "value": 0.1}]}, {"smiles": "Cl.NNc1ccc(-n2cccc2)nn1", "values": [{"measurement": "LD50", "setting": "[9]", "value": 389, "unit": "µmol/kg"}, {"measurement": "ED20", "setting": "[13]", "value": 0.423, "unit": "µM/kg"}, {"measurement": "Relative potency", "setting": "[10]", "value": 0.9}, {"measurement": "Relative potency", "setting": "[14]", "value": 1.06}, {"measurement": "ED20", "setting": "[11]", "value": 40.1, "unit": "µM/kg"}]}, {"smiles": "NNc1ccc(-n2cccn2)nn1", "values": [{"measurement": "LD50", "setting": "[9]", "value": 387, "unit": "µmol/kg"}, {"measurement": "ED20", "setting": "[1]", "value": 0.83, "unit": "µM/kg"}, {"measurement": "Relative potency", "setting": "[6]", "value": 1.32}, {"measurement": "ED20", "setting": "[11]", "value": 27.3, "unit": "µM/kg"}]}, {"smiles": "CC(C)=NNc1ccc(-n2ccnc2C)nn1", "values": [{"measurement": "ED20", "setting": "[4]", "value": 0.242, "unit": "µM/kg"}, {"measurement": "LD50", "setting": "[5]", "value": 430, "unit": "µmol/kg"}, {"measurement": "Relative potency", "setting": "[6]", "value": 3.37}, {"measurement": "Relative potency", "setting": "[7]", "value": 1.86}, {"measurement": "ED20", "setting": "[8]", "value": 10.7, "unit": "µM/kg"}]}, {"smiles": "NNc1ccc(-n2c3ccccc3c3ccccc32)nn1", "values": [{"measurement": "Relative potency", "setting": "[2]", "value": "<0.11"}]}, {"smiles": "NNc1ccc(-c2cccs2)nn1", "values": [{"measurement": "LD50", "setting": "[9]", "value": 521, "unit": "µmol/kg"}, {"measurement": "ED20", "setting": "[1]", "value": 0.41, "unit": "µM/kg"}, {"measurement": "Relative potency", "setting": "[2]", "value": 1.08}]}]}
